{"source": "BindingDB's records for doi:10.7270/Q2TX3CTT", "about": "(Broad Institute, 2010)", "note": "Where a name gives a salt, the structure may show the parent alone."}
{"molecular_target": "Glycogen synthase kinase-3 beta (Homo sapiens, UniProt P49841)", "sequence (P49841 whole entry)": "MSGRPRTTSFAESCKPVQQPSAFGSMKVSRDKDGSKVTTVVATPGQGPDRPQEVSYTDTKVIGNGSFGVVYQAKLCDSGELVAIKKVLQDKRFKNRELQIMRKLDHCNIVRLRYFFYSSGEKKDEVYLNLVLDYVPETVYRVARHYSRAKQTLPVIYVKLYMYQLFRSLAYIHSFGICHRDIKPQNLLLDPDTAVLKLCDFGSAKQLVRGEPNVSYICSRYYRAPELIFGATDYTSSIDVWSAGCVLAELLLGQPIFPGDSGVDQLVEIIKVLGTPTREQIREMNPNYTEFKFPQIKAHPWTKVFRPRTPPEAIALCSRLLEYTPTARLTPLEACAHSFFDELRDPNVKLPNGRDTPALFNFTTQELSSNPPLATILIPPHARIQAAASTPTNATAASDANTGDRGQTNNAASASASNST", "assay": "GSK3beta kinase inhibitor potency, dose response, biochemical, luminescence, cell-free homogeneous, retest (AID 434954)", "units": {"EC50": "µM"}}
{"compound": "Nc1nc(NCc2ccco2)nc(Nc2ccccc2)c1[N+](=O)[O-]", "note": "[N-Furan-2-ylmethyl-5-nitro-N'-phenyl-pyrimidine-2,4,6-triamine]", "EC50": "> 300"}
{"compound": "COc1ccc(OC)c(Nc2nc(NCCCN(C)C)nc(N)c2[N+](=O)[O-])c1", "note": "[3-[[4-amino-6-(2,5-dimethoxyanilino)-5-nitro-pyrimidin-2-yl]amino]propyl-dimethyl-amine]", "EC50": 2.74}
{"compound": "COc1cccc2c1cc1c(=O)n(CC(=O)N3CCCCCC3)nc(C)n12", "note": "[2-[2-(azepan-1-yl)-2-oxidanylidene-ethyl]-9-methoxy-4-methyl-[1,2,4]triazino[4,5-a]indol-1-one]", "EC50": "> 300"}
{"compound": "N#Cc1c(N2CCCCC2)nc(N2CCCCC2)c2c1CCN(Cc1ccccc1)C2", "note": "[SMR000036037]", "EC50": 3.3}
{"compound": "O=C1CCCC2=Nc3ncnn3C(c3cccs3)C12", "note": "(configuration not stated) [9-thiophen-2-yl-5,6,7,9-tetrahydro-1H-[1,2,4]triazolo[5,1-b]quinazolin-8-one]", "EC50": "> 300"}
{"compound": "CC(C)N1CCc2c(sc(NC(=O)CN3C(=O)c4ccccc4C3=O)c2C(N)=O)C1", "EC50": "> 300"}
{"compound": "Cn1c(=O)[nH]c(=O)c2c1nc(Br)n2Cc1ccccc1Cl", "note": "[MLS000031623]", "EC50": "> 300"}
{"compound": "COCCNc1nc(N)c([N+](=O)[O-])c(NCC2CCCO2)n1", "note": "(configuration not stated) [MLS000588049]", "EC50": 13}
{"compound": "CCCC1=Nc2ncnn2C(c2ccco2)C1C(=O)OCC", "note": "(configuration not stated) [ethyl 7-(furan-2-yl)-5-propyl-1,7-dihydro-[1,2,4]triazolo[1,5-a]pyrimidine-6-carboxylate]", "EC50": 17.4}
{"compound": "CCOc1ccccc1NC(=O)c1nnn(-c2ccc3c(c2)OCCO3)c1N", "note": "[MLS001221013]", "EC50": "> 300"}
{"compound": "Cc1ccc(S(=O)(=O)NC2=NC(=O)/C(=C/c3ccccc3)S2)cc1", "note": "[4-methyl-N-[(5Z)-4-oxo-5-(phenylmethylene)-2-thiazolyl]benzenesulfonamide]", "EC50": "> 300"}
{"compound": "C=CCNc1nc(N)c([N+](=O)[O-])c(Nc2ccccc2OC)n1", "note": "[4-N-(2-methoxyphenyl)-5-nitro-2-N-prop-2-enylpyrimidine-2,4,6-triamine]", "EC50": "> 300"}
{"compound": "CC(C)Sc1nc2c(c(=O)[nH]1)C(c1cccs1)C1C(=O)CC(C)(C)CC1=N2", "note": "(configuration not stated) [8,8-dimethyl-2-propan-2-ylsulfanyl-5-thiophen-2-yl-5,7,9,10-tetrahydro-1H-pyrimido[4,5-b]quinoline-4,6-dione]", "EC50": "> 300"}
{"compound": "COc1ccc(S(=O)(=O)Nc2c(C(=O)O)[nH]c3ccc(OC)cc23)c(OC)c1", "note": "[SMR000650153]", "EC50": 1.15}
{"compound": "COc1cccc(-c2nnc3sc(C4CCCCC4)nn23)c1", "note": "[6-cyclohexyl-3-(3-methoxyphenyl)-[1,2,4]triazolo[3,4-b][1,3,4]thiadiazole]", "EC50": 16.3}
{"compound": "c1ccc(OCCCn2nnc(-c3ccncc3)n2)cc1", "note": "[SMR000008082]", "EC50": 20.3}
{"compound": "COc1cccc(C(=O)Nc2nnc(C(C)C)s2)c1", "note": "[SMR000013475]", "EC50": "> 300"}
{"compound": "CCc1nn(CC(=O)NCCN2CCN(C)CC2)c(=O)c2cc3c(OC)cccc3n12", "note": "[MLS001110984]", "EC50": "> 300"}
{"compound": "CC(C)OCCCNC(=O)c1ccc(CS(=O)(=O)Cc2ccccc2F)o1", "note": "[5-[(2-fluorophenyl)methylsulfonylmethyl]-N-(3-propan-2-yloxypropyl)furan-2-carboxamide]", "EC50": "> 300"}
{"compound": "N#CCCN1CCCc2cc(/N=N/c3ccc(C(F)(F)F)cc3)ccc21", "EC50": "> 300"}
{"compound": "Nc1nc(NCC(=O)O)nc(NC2CCCCC2)c1[N+](=O)[O-]", "note": "[2-[[4-azanyl-6-(cyclohexylamino)-5-nitro-pyrimidin-2-yl]amino]ethanoic acid]", "EC50": "> 300"}
{"compound": "CC(=O)c1cccc(S(=O)(=O)NC2CCSc3ccccc32)c1", "note": "(configuration not stated)", "EC50": "> 300"}
{"compound": "COc1ccc(C(=O)ON=C(C)c2ccccc2)cc1", "note": "[SMR000159704]", "EC50": 20.9}
{"compound": "O=C(OCCCOC(=O)c1cc[n+]([O-])cc1)c1cc[n+]([O-])cc1", "EC50": "> 300"}
{"compound": "Cn1c(SCc2ccccc2C#N)nnc1-c1ccncc1", "note": "[2-(4-Methyl-5-pyridin-4-yl-4H-[1,2,4]triazol-3-ylsulfanylmethyl)-benzonitrile]", "EC50": "> 300"}
{"compound": "CCCCCCCCCCCCC(=O)CCCCC(=O)O", "note": "[MLS001049131]", "EC50": "> 300"}
{"compound": "Cc1cc(NC(=O)CCC(=O)N(c2cccnc2)C(C(=O)NC2CCCC2)c2ccccc2F)no1", "note": "(configuration not stated) [N'-[2-(cyclopentylamino)-1-(2-fluorophenyl)-2-oxoethyl]-N-(5-methyl-1,2-oxazol-3-yl)-N'-pyridin-3-ylbutanediamide]", "EC50": "> 300"}
{"compound": "CCCn1cc(SCC(=O)NCc2ccco2)c2ccccc21", "note": "[MLS000095681]", "EC50": "> 300"}
{"compound": "CCNc1nc(N)nc(-c2cc(Cl)ccc2OC)n1", "note": "[MLS000538218]", "EC50": "> 300"}
{"compound": "COc1ccc(/C=C2\\Sc3ccc(C(=O)NCCCN4CCCC4)cc3N(C)C2=O)cc1OC", "note": "[(2Z)-2-[(3,4-dimethoxyphenyl)methylidene]-4-methyl-3-oxo-N-(3-pyrrolidin-1-ylpropyl)-1,4-benzothiazine-6-carboxamide]", "EC50": "> 300"}
{"compound": "COc1ccc(Cl)cc1-n1c(C)ccc1C", "note": "[MLS000680869]", "EC50": "> 300"}
{"compound": "COC(=O)c1nnn(-c2nonc2N)c1CSc1nc2ccccc2s1", "note": "[methyl 1-(4-amino-1,2,5-oxadiazol-3-yl)-5-(1,3-benzothiazol-2-ylsulfanylmethyl)triazole-4-carboxylate]", "EC50": "> 300"}
{"compound": "CCOC(=O)C1C(=CN2CCSCC2)NC(=O)NC1c1cc(C)ccc1C", "note": "(configuration not stated) [MLS000052412]", "EC50": "> 300"}
{"compound": "COc1cccc(C(=O)CC(C#N)c2ccc(F)cc2)c1", "note": "(configuration not stated) [MLS001165246]", "EC50": "> 300"}
{"compound": "CCCCCC(=O)N1CCN(S(=O)(=O)c2ccc3c(c2)OCCCO3)CC1", "note": "[MLS001161784]", "EC50": "> 300"}
{"compound": "CCCOC1CCCN(Cc2cn(C)nc2-c2ccccc2F)C1", "note": "(configuration not stated) [1-[[3-(2-fluorophenyl)-1-methylpyrazol-4-yl]methyl]-3-propoxypiperidine]", "EC50": "> 300"}
{"compound": "COc1cccc(CNC(=O)C2CCN(S(=O)(=O)c3ccc(-n4cnnn4)cc3)CC2)c1", "note": "[SMR000600329]", "EC50": "> 300"}
{"compound": "O=C(CCSc1nnc(-c2ccncc2)o1)Nc1ccc(F)cc1", "note": "[N-(4-fluorophenyl)-3-[(5-pyridin-4-yl-1,3,4-oxadiazol-2-yl)thio]propanamide]", "EC50": "> 300"}
{"compound": "NC(=O)c1ccc(Oc2ccc(Cl)c3ccccc23)c([N+](=O)[O-])c1", "note": "[4-(4-chloronaphthalen-1-yl)oxy-3-nitrobenzamide]", "EC50": "> 300"}
{"compound": "CCCN(CCC)Cc1c(C(=O)NN=Cc2ccc(Br)cc2)nnn1-c1nonc1N", "note": "[1-(4-azanyl-1,2,5-oxadiazol-3-yl)-N-[(4-bromophenyl)methylideneamino]-5-[(dipropylamino)methyl]-1,2,3-triazole-4-carboxamide]", "EC50": "> 300"}
{"compound": "Cc1ccc2c(c1)NC(=O)c1cc([N+](=O)[O-])ccc1O2", "note": "[8-methyl-2-nitrodibenzo[b,f][1,4]oxazepin-11(10H)-one]", "EC50": "> 300"}
{"compound": "COc1ccc(-c2noc(CSc3nnc(-c4ccccc4)n3C)n2)cc1", "note": "[3-(4-methoxyphenyl)-5-[(4-methyl-5-phenyl-1,2,4-triazol-3-yl)sulfanylmethyl]-1,2,4-oxadiazole]", "EC50": "> 300"}
{"compound": "Clc1cccc(Nc2nc(-c3ccncc3)nc3ccccc23)c1", "EC50": 56.8}
{"compound": "O=C1NC(=Nc2ccccc2)SC1=Cc1ccccc1", "note": "[5-Benzylidene-2-phenylimino-thiazolidin-4-one]", "EC50": "> 300"}
{"compound": "CC1=C(C#N)C(=O)NC(=O)C1=CNc1ccc(S(=O)(=O)N(C)C)cc1", "EC50": "> 300"}
{"compound": "Cc1c(NC(=O)C(C)n2cc([N+](=O)[O-])cn2)c(=O)n(-c2ccccc2)n1C", "note": "(configuration not stated) [N-(1,5-dimethyl-3-oxo-2-phenylpyrazol-4-yl)-2-(4-nitropyrazol-1-yl)propanamide]", "EC50": "> 300"}
{"compound": "COc1ccccc1Nc1nc(NCC(C)C)nc(N)c1[N+](=O)[O-]", "note": "[SMR000436174]", "EC50": 0.888}
{"compound": "COc1ccc(-n2nc3c(N)n[nH]c3cc2=O)cc1", "note": "[SMR000337768]", "EC50": 14.1}
{"compound": "CSc1nc2n(n1)C(c1cccs1)C1C(=O)CCCC1=N2", "note": "(configuration not stated) [SMR000295648]", "EC50": "> 300"}
{"compound": "COCCOC(=O)C1C(C)=Nc2ncnn2C1c1ccccc1", "note": "(configuration not stated)", "EC50": "> 300"}
{"compound": "O=C(CSc1ccc2nnc(-c3cccs3)n2n1)N1CCCC1", "note": "[1-(1-pyrrolidinyl)-2-[(3-thiophen-2-yl-[1,2,4]triazolo[4,3-b]pyridazin-6-yl)thio]ethanone]", "EC50": "> 300"}
{"compound": "Cc1ccc(CSc2ccc(-c3cccs3)nn2)cc1", "note": "[3-[(4-methylphenyl)methylsulfanyl]-6-thiophen-2-ylpyridazine]", "EC50": "> 300"}
{"compound": "OCCCNc1cc(-c2ccnc(Nc3cccc(Cl)c3)n2)ccn1", "EC50": 0.212}
{"compound": "Cc1ccc(C)c(S(=O)(=O)N2CCN(C(C(=O)Nc3ccc(F)cc3)c3ccccc3)CC2)c1", "note": "(configuration not stated) [2-[4-(2,5-dimethylphenyl)sulfonyl-1-piperazinyl]-N-(4-fluorophenyl)-2-phenylacetamide]", "EC50": "> 300"}
{"compound": "COCC(C)n1c(C)cc(C(=O)COC(=O)c2ccc3c(c2)NC(=O)CS3)c1C", "note": "(configuration not stated)", "EC50": "> 300"}
{"compound": "CCOC(=O)C1C(C)=Nc2ncnn2C1c1cccs1", "note": "(configuration not stated)", "EC50": 57.9}
{"compound": "O=C(O)c1ccc2c3n(nc2c1)-c1ccc(Cl)cc1CO3", "note": "[SMR000673552]", "EC50": 55.5}
{"compound": "O=C(NN=Cc1ccco1)c1ccn[nH]1", "note": "[SMR000279368]", "EC50": "> 300"}
{"compound": "Cc1nccc(-c2cccc(NC(=O)c3ccccc3Cl)c2)n1", "note": "[MLS000859188]", "EC50": "> 300"}
{"compound": "Cc1nc2nc(=O)c3c(n2[nH]1)NC1=C(C(=O)CC(C)(C)C1)C3c1ccccc1", "note": "(configuration not stated) [MLS000084334]", "EC50": "> 300"}
{"compound": "CCN1CCc2c(sc(NC(=O)Cc3ccccc3)c2C(N)=O)C1", "note": "[6-ethyl-2-[(1-oxo-2-phenylethyl)amino]-5,7-dihydro-4H-thieno[2,3-c]pyridine-3-carboxamide;hydrochloride]", "EC50": "> 300"}
{"compound": "COc1cc(CNC=C2C(=O)NC(=O)N(C(C)(C)C)C2=O)cc(OC)c1", "note": "[(5Z)-1-tert-butyl-5-[[(3,5-dimethoxyphenyl)methylamino]methylidene]-1,3-diazinane-2,4,6-trione]", "EC50": "> 300"}
{"compound": "CCc1ccc(C=NNC(=O)c2nnn(-c3nonc3N)c2CN2CCOCC2)cc1", "EC50": "> 300"}
{"compound": "CN(C)Cc1c(O)ccc2occ(C(=O)c3ccccc3)c12", "note": "[SMR000069709]", "EC50": "> 300"}
{"compound": "CC(C)=CCc1c(O)cc2c(c1O)C(=O)CC(c1ccccc1)O2", "note": "(configuration not stated) [MLS000697639]", "EC50": "> 300"}
{"compound": "O=C1OCCC1Sc1nnc(-c2ccc(O)cc2)o1", "note": "(configuration not stated) [3-[[2-(4-oxo-1-cyclohexa-2,5-dienylidene)-3H-1,3,4-oxadiazol-5-yl]thio]-2-oxolanone]", "EC50": 14.3}
{"compound": "NS(=O)(=O)c1ccc(NC(=O)CN2C(=O)CCC2=O)cc1", "note": "[2-[2,5-bis(oxidanylidene)pyrrolidin-1-yl]-N-(4-sulfamoylphenyl)ethanamide]", "EC50": "> 300"}
